Laboratory results taken from patent US10947271B2, “Antibacterial agents” (THE UNIVERSITY OF QUEENSLAND, priority 2014, dated 2021).

Legend:
Format in all cases: cell-based
Conditions in all cases: 24 h incubation, visual reading
[1] = system: Staphylococcus aureus MRSA ATCC 43300; assay: MIC assay, S. aureus MRSA ATCC 43300
Method: (§1) Antimicrobial activity of compounds was tested against a number of bacterial strains, including Staphylococcus aureus (MRSA ATCC 43300, GISA NRS17, VISA NRS1, MRSA clinical isolate, daptomycin resistant clinical isolate), Streptococcus pneumoniae (MDR ATCC 700677), Enterococcus faecalis (VanA clinical isolate) and Enterococcus faecium (MDR Van A ATCC 51559).
(§2) All compounds were prepared to 160 μg/ml solution in water from a stock solution of 1 mM concentration.
(§3) The compounds, along with standard antibiotics were serially diluted twofold across the wells of 96-well non-binding surface plates (NBS, Corning). Standards ranged from 64 μg/ml to 0.03 μg/ml and compounds from 8 μg/ml to 0.003 μg/ml with final volumes of 50 μL per well. Gram positive bacteria were cultured in Muller Hinton broth (MHB) (Bacto laboratories, Cat. no. 211443) at 37° C. overnight. A sample of each culture was then diluted 40-fold in fresh MHB broth and incubated at 37° C. for 2-3 hrs. The resultant mid-log phase cultures were diluted to the final concentration of 5×10e5 CFU/mL, then 50 μL was added to each well of the compound-containing 96-well plates. All the plates were covered and incubated at 37° C. for 24 h. MICs were the lowest concentration showing no visible growth.
(§4) MICs were determined visually at 24 hr incubation and the MIC was defined as the lowest concentration with which no growth was visible after incubation. Both MIC and MBC were determined by visual inspection only.

[2] = system: Enterococcus faecium MDR Van A ATCC 51559; assay: MIC assay, E. faecium MDR Van A ATCC 51559
Method: as §1, §2, §3, §4

[3] = system: Streptococcus pneumoniae MDR ATCC 700677; assay: MIC assay, S. pneumoniae MDR ATCC 700677
Method: as §1, §2, §3, §4

| SMILES | Minimum Inhibitory Concentration (MIC) Staph. aureus ATCC43300 [1] | Minimum Inhibitory Concentration (MIC) E. faecium ATCC51559 [2] | Minimum Inhibitory Concentration (MIC) S. pneumoniae ATCC 700677 [3] |
| --- | --- | --- | --- |
| CNC(CC(C)C)C(=O)NC1C(=O)NC(CC(N)=O)C(=O)NC2C(=O)NC3C(=O)NC(C(=O)NC(C(=O)NCCCCC(NC(=O)C(CCCCN)NC(=O)C(CCCCN)NC(=O)C(CCCCN)NC(=O)c4ccc(Oc5ccccc5)cc4)C(=O)O)c4cc(O)cc(O)c4-c4cc3ccc4O)C(O)c3ccc(c(Cl)c3)Oc3cc2cc(c3OC2OC(CO)C(O)C(O)C2OC2CC(C)(N)C(O)C(C)O2)Oc2ccc(cc2Cl)C1O (centres unmarked) [MCC_000194] | xxx (xxx = 0.1-<1) | x (x = >4) | xxx (xxx = 0.1-<1) |
| CCCCCCCCCCCCCC(=O)N[C@@H](CCCCN)C(=O)N[C@@H](CCCCN)C(=O)N[C@@H](CCCCNC(=O)[C@H]1NC(=O)[C@H]2NC(=O)[C@H](NC(=O)[C@@H]3NC(=O)[C@H](CC(N)=O)NC(=O)[C@H](NC(=O)[C@@H](CC(C)C)NC)[C@H](O)c4ccc(c(Cl)c4)Oc4cc3cc(c4O[C@@H]3O[C@H](CO)[C@@H](O)[C@H](O)[C@H]3O[C@H]3C[C@](C)(N)[C@H](O)[C@H](C)O3)Oc3ccc(cc3Cl)[C@H]2O)c2ccc(O)c(c2)-c2c(O)cc(O)cc21)C(=O)NC [MCC_000224] | xxxxx (xxxxx = <0.01) | xxx (xxx = 0.1-<1) | xxxxx (xxxxx = <0.01) |
| CCCCCCCCCCC(=O)N[C@@H](CCCCN)C(=O)N[C@@H](CCCCN)C(=O)N[C@@H](CCCCNC(=O)CNC(=O)[C@H]1NC(=O)[C@H]2NC(=O)[C@H](NC(=O)[C@@H]3NC(=O)[C@H](CC(N)=O)NC(=O)[C@H](NC(=O)[C@@H](CC(C)C)NC)[C@H](O)c4ccc(c(Cl)c4)Oc4cc3cc(c4O[C@@H]3O[C@H](CO)[C@@H](O)[C@H](O)[C@H]3O[C@H]3C[C@](C)(N)[C@H](O)[C@H](C)O3)Oc3ccc(cc3Cl)[C@H]2O)c2ccc(O)c(c2)-c2c(O)cc(O)cc21)C(=O)O [MCC_000225] | xxx (xxx = 0.1-<1) | x (x = >4) | xxx (xxx = 0.1-<1) |
| CCCCCCCCCCCCCC(=O)N[C@@H](CCCN)C(=O)N[C@@H](CCCN)C(=O)NCC(=O)NCCNC(=O)[C@H]1NC(=O)[C@H]2NC(=O)[C@H](NC(=O)[C@@H]3NC(=O)[C@H](CC(N)=O)NC(=O)[C@H](NC(=O)[C@@H](CC(C)C)NC)[C@H](O)c4ccc(c(Cl)c4)Oc4cc3cc(c4O[C@@H]3O[C@H](CO)[C@@H](O)[C@H](O)[C@H]3O[C@H]3C[C@](C)(N)[C@H](O)[C@H](C)O3)Oc3ccc(cc3Cl)[C@H]2O)c2ccc(O)c(c2)-c2c(O)cc(O)cc21 [MCC_000228] | xxxxx (xxxxx = <0.01) | xxxx (xxxx = 0.01-<0.1) | xxxxx (xxxxx = <0.01) |
| CNC(CC(C)C)C(=O)NC1C(=O)NC(CC(N)=O)C(=O)NC2C(=O)NC3C(=O)NC(C(=O)NC(C(=O)NCCCCC(NC(=O)C(CCCCN)NC(=O)C(CCCCN)NC(=O)C(CCCCN)NC(=O)C(CCCCNC(=O)c4ccc(Oc5ccccc5)cc4)NC(=O)c4ccc(Oc5ccccc5)cc4)C(=O)O)c4cc(O)cc(O)c4-c4cc3ccc4O)C(O)c3ccc(c(Cl)c3)Oc3cc2cc(c3OC2OC(CO)C(O)C(O)C2OC2CC(C)(N)C(O)C(C)O2)Oc2ccc(cc2Cl)C1O (centres unmarked) [MCC_000230] | xxxxx (xxxxx = <0.01) | xxx (xxx = 0.1-<1) | xxxx (xxxx = 0.01-<0.1) |

Other lines, results leading:

| Minimum Inhibitory Concentration (MIC) Staph. aureus ATCC43300 [1] | Minimum Inhibitory Concentration (MIC) E. faecium ATCC51559 [2] | Minimum Inhibitory Concentration (MIC) S. pneumoniae ATCC 700677 [3] | SMILES |
| --- | --- | --- | --- |
| xx (xx = 1-4) | x (x = >4) | xx (xx = 1-4) | CCCCCCCCCCC(=O)NCCCC[C@H](NC(=O)CCCCCCCCCC)C(=O)N[C@@H](CCCCN)C(=O)N[C@@H](CCCCN)C(=O)N[C@@H](CCCCNC(=O)[C@H]1NC(=O)[C@H]2NC(=O)[C@H](NC(=O)[C@@H]3NC(=O)[C@H](CC(N)=O)NC(=O)[C@H](NC(=O)[C@@H](CC(C)C)NC)[C@H](O)c4ccc(c(Cl)c4)Oc4cc3cc(c4O[C@@H]3O[C@H](CO)[C@@H](O)[C@H](O)[C@H]3O[C@H]3C[C@](C)(N)[C@H](O)[C@H](C)O3)Oc3ccc(cc3Cl)[C@H]2O)c2ccc(O)c(c2)-c2c(O)cc(O)cc21)C(=O)O [MCC_000231] |
| xxxx (xxxx = 0.01-<0.1) | xx (xx = 1-4) | xxxx (xxxx = 0.01-<0.1) | CCCCCCCCCCC(=O)N[C@@H](CCCCN)C(=O)N[C@@H](CCCCN)C(=O)N[C@@H](CCCCNC(=O)[C@H]1NC(=O)[C@H]2NC(=O)[C@H](NC(=O)[C@@H]3NC(=O)[C@H](CC(N)=O)NC(=O)[C@H](NC(=O)[C@@H](CC(C)C)NC)[C@H](O)c4ccc(c(Cl)c4)Oc4cc3cc(c4O[C@@H]3O[C@H](CO)[C@@H](O)[C@H](O)[C@H]3O[C@H]3C[C@](C)(N)[C@H](O)[C@H](C)O3)Oc3ccc(cc3Cl)[C@H]2O)c2ccc(O)c(c2)-c2c(O)cc(O)cc21)C(=O)NC [MCC_000292] |
| xxxxx (xxxxx = <0.01) | xxx (xxx = 0.1-<1) | xxxxx (xxxxx = <0.01) | CCCCCCCCCCC(=O)N[C@@H](CCCCN)C(=O)N[C@@H](CCCCN)C(=O)N[C@@H](CCCCN)C(=O)N[C@@H](CCCCNC(=O)[C@H]1NC(=O)[C@H]2NC(=O)[C@H](NC(=O)[C@@H]3NC(=O)[C@H](CC(N)=O)NC(=O)[C@H](NC(=O)[C@@H](CC(C)C)NC)[C@H](O)c4ccc(c(Cl)c4)Oc4cc3cc(c4O[C@@H]3O[C@H](CO)[C@@H](O)[C@H](O)[C@H]3O[C@H]3C[C@](C)(N)[C@H](O)[C@H](C)O3)Oc3ccc(cc3Cl)[C@H]2O)c2ccc(O)c(c2)-c2c(O)cc(O)cc21)C(=O)NC [MCC_000309] |
| xxxxx (xxxxx = <0.01) | xxxx (xxxx = 0.01-<0.1) | xxxxx (xxxxx = <0.01) | CNC(=O)C(CCCCNC(=O)C1NC(=O)C2NC(=O)C(NC(=O)C3NC(=O)C(CC(N)=O)NC(=O)C(NC(=O)C(CC(C)C)NC)C(O)c4ccc(c(Cl)c4)Oc4cc3cc(c4OC3OC(CO)C(O)C(O)C3OC3CC(C)(N)C(O)C(C)O3)Oc3ccc(cc3Cl)C2O)c2ccc(O)c(c2)-c2c(O)cc(O)cc21)NC(=O)C(CCCCN)NC(=O)C(CCCCN)NC(=O)C(CCCCN)NC(=O)C(CCCCNC(=O)c1ccc(Oc2ccccc2)cc1)NC(=O)c1ccc(Oc2ccccc2)cc1 (centres unmarked) [MCC_000316] |
| xxxx (xxxx = 0.01-<0.1) |  | xxxxx (xxxxx = <0.01) | CCCCCCCCCCCCCC(=O)NCC(=O)N[C@@H](CO)C(=O)N[C@@H](CCCCN)C(=O)N[C@@H](CCCCN)C(=O)N[C@@H](CCCCN)C(=O)N[C@@H](CCCCNC(=O)[C@H]1NC(=O)[C@H]2NC(=O)[C@H](NC(=O)[C@@H]3NC(=O)[C@H](CC(N)=O)NC(=O)[C@H](NC(=O)[C@@H](CC(C)C)NC)[C@H](O)c4ccc(c(Cl)c4)Oc4cc3cc(c4O[C@@H]3O[C@H](CO)[C@@H](O)[C@H](O)[C@H]3O[C@H]3C[C@](C)(N)[C@H](O)[C@H](C)O3)Oc3ccc(cc3Cl)[C@H]2O)c2ccc(O)c(c2)-c2c(O)cc(O)cc21)C(=O)O [MCC_000380] |
